Assay results as given in paper PMC9977294, “A parasitic fungus employs mutated eIF4A to survive on rocaglate-synthesizing Aglaia plants” (eLife, 2023).
“And” between values parts separate entries of the source, which are not always exact repeats. Identical values can stand only once. Like-named read-outs stand apart in the source and are kept apart here.

How the values were obtained:
C. sativus leaves = experiment: Morphology of cucumber leaves sprayed with aglafoline; type: in vivo, Cucumis sativus; conditions: aglafoline 1 µM in water sprayed, 3 days
Description: Figure 4. Phenotypic comparison of the C. orbiculare eIF4A^WT and eIF4A^His153Gly strains during infection in the presence of rocaglate. (A) Workflow for monitoring the biomass of C. orbiculare eIF4A^WT or eIF4A^His153Gly strains on cucumber leaves under treatment with aglafoline. (B) Comparison of in planta fungal biomass of C. orbiculare eIF4A^WT or eIF4A^His153Gly strains with or without treatment with 1 µM aglafoline. Relative expression levels of the C. orbiculare 60 S ribosomal protein L5 gene (GenBank: Cob_v012718) normalized to that of a cucumber cyclophilin gene (GenBank: AY942800.1) were determined by RT–qPCR at 3 dpi (n = 8). The relative fungal biomasses of C. orbiculare were normalized to those of eIF4A^WT without aglafoline. Significance was calculated by Student’s t-test (two-tailed). […] Figure 4—source data 1. Files for the primary data corresponding to Figure 4B. Figure 4—figure supplement 1. Characterization of cucumber leaves treated with aglafoline. (A) C. sativus leaves were sprayed with DMSO or aglafoline (1 µM) in water and incubated for 3 days using the same method as C. orbiculare inoculation. Figure 4—figure supplement 1—source data 1. Files for the full and unedited pictures corresponding to Figure 4—figure supplement 1A. [drawing 12]

[1] = molecular target: T1, H. sapiens eIF4A1 Phe163His (Homo sapiens, UniProt P60842, F163H); experiment: Fluorescence polarization assay, FAM-labeled [AG]10 RNA and recombinant eIF4A; type: binding; conditions: RocA 50 µM
T1 construct: His tag (N); made in house; host or cells: E. coli BL21 Star (DE3)
T1 sequence (P60842 whole entry F163H): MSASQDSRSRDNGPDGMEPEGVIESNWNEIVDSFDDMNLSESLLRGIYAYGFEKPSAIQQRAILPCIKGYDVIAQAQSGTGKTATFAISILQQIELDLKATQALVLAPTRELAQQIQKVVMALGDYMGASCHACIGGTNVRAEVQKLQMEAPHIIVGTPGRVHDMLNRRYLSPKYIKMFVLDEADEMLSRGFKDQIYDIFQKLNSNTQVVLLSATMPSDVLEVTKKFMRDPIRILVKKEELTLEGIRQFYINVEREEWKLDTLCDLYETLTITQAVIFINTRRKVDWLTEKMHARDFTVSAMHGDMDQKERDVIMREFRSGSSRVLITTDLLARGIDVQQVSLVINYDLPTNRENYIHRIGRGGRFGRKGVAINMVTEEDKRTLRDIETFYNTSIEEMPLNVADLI
Description: (§1) The fluorescence polarization assay was performed as previously described ([Chen et al., 2021]). […] After incubation at room temperature for 30 min, the mixture was transferred to a black 384-well microplate (Corning), and the fluorescence polarization was measured by an Infinite F-200 PRO (Tecan). Under ADP + Pi conditions, 1 mM ADP (Fujifilm Wako Chemicals) and 1 mM Na2HPO4 were used as substitutes for AMP-PNP. The data were fitted to the Hill equation to calculate Kd values and visualized by Igor Pro v8.01 (WaveMetrics).

[2] = molecular target: T2, O. sinensis eIF4A WT His154 (Ophiocordyceps sinensis, UniProt A0A8H4LTQ8); experiment: as above; type: binding; conditions: for Kd: [AG]10 10 nM, compound 50 µM, read-out: Kd between eIF4A protein and RNA
T2 sequence (A0A8H4LTQ8 1-397): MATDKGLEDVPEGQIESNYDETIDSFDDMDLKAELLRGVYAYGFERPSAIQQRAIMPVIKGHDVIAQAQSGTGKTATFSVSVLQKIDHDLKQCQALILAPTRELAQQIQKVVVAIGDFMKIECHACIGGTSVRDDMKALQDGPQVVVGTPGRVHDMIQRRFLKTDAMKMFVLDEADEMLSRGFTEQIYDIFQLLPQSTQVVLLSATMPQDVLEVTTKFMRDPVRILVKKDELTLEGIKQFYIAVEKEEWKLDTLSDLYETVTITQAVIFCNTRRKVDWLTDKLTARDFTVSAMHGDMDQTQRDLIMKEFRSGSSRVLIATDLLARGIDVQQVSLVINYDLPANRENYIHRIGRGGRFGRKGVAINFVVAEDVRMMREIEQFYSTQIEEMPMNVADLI
Description: as §1

[3] = [AG]10, ADP + Pi, RocA 50 µM, protein 0.05 μM
[4] = [AG]10, ADP + Pi, RocA 50 µM, protein 0.075 μM
[5] = [AG]10, ADP + Pi, RocA 50 µM, protein 0.1 μM
[6] = [AG]10, ADP + Pi, RocA 50 µM, protein 0.5 μM
[7] = [AG]10, ADP + Pi, RocA 50 µM, protein 0.75 μM
[8] = [AG]10, ADP + Pi, RocA 50 µM, protein 1 μM
[9] = [AG]10, ADP + Pi, RocA 50 µM, protein 5 μM
[10] = [AG]10, ADP + Pi, RocA 50 µM, protein 7.5 μM
[11] = [AG]10, ADP + Pi, RocA 50 µM, protein 10 μM
[12] = [AG]10, ADP + Pi, RocA 50 µM, protein 25 μM
[13] = [AG]10, ADP + Pi, RocA 50 µM, protein 50 μM
[14] = [AG]10 RNA, AMP-PNP, RocA, protein concentration 0.01 μM
[15] = [AG]10 RNA, AMP-PNP, RocA, protein concentration 0.05 μM
[16] = [AG]10 RNA, AMP-PNP, RocA, protein concentration 0.075 μM
[17] = [AG]10 RNA, AMP-PNP, RocA, protein concentration 0.1 μM
[18] = [AG]10 RNA, AMP-PNP, RocA, protein concentration 0.5 μM
[19] = [AG]10 RNA, AMP-PNP, RocA, protein concentration 0.75 μM
[20] = [AG]10 RNA, AMP-PNP, RocA, protein concentration 1 μM
[21] = [AG]10 RNA, AMP-PNP, RocA, protein concentration 5 μM
[22] = [AG]10 RNA, AMP-PNP, RocA, protein concentration 7.5 μM
[23] = [AG]10 RNA, AMP-PNP, RocA, protein concentration 10 μM
[24] = [AG]10 RNA, AMP-PNP, RocA, protein concentration 25 μM
[25] = [AG]10 RNA, AMP-PNP, RocA, protein concentration 50 μM

`COC(=O)[C@H]1[C@@H](O)[C@@]2(O)c3c(OC)cc(OC)cc3O[C@@]2(c2ccc(OC)cc2)[C@@H]1c1ccccc1` [Aglafoline, methyl rocaglate] was tested, and the “morphological alteration of cucumber leaves” value (C. sativus leaves) was “no morphological alteration of the leaves was observed”.
In the case of `COc1ccc([C@@]23Oc4cc(OC)cc(OC)c4[C@]2(O)[C@H](O)[C@H](C(=O)N(C)C)[C@H]3c2ccccc2)cc1` [RocA, rocaglamide A], the “fluorescence polarization, Mean” value ([1]; ADP + Pi, protein 0.01 μM) is reported as -0.03005, the “fluorescence polarization, replicates” value ([1]; ADP + Pi, protein 0.01 μM) is reported as 0.07104 and -0.06011 and -0.1011 and the “fluorescence polarization, Mean” value ([1]; ADP + Pi, protein 0.05 μM) is reported as -0.008197. The “fluorescence polarization, replicates” value ([1]; ADP + Pi, protein 0.05 μM) was 0.03005 and 0.005464 and -0.06011, the “fluorescence polarization, Mean” value ([1]; ADP + Pi, protein 0.075 μM) was 0.02186 and the “fluorescence polarization, replicates” value ([1]; ADP + Pi, protein 0.075 μM) was 0.03005 and 0.01366 and 0.02186. For the same molecule, the “fluorescence polarization, Mean” value ([1]; ADP + Pi, protein 0.1 μM) was 0.01639, the “fluorescence polarization, replicates” value ([1]; ADP + Pi, protein 0.1 μM) was 0.04645 and -0.01913 and 0.02186 and the “fluorescence polarization, Mean” value ([1]; ADP + Pi, protein 0.5 μM) was 0.08197. For the same molecule, the “fluorescence polarization, replicates” value ([1]; ADP + Pi, protein 0.5 μM) was 0.04645 and 0.1038 and 0.09563, the “fluorescence polarization, Mean” value ([1]; ADP + Pi, protein 0.75 μM) was 0.06831 and the “fluorescence polarization, replicates” value ([1]; ADP + Pi, protein 0.75 μM) was 0.1448 and -0.01913 and 0.07923. The “fluorescence polarization, Mean” value ([1]; ADP + Pi, protein 1 μM) was 0.1694, the “fluorescence polarization, replicates” value ([1]; ADP + Pi, protein 1 μM) was 0.2514 and 0.1694 and 0.08743 and the “fluorescence polarization, Mean” value ([1]; ADP + Pi, protein 5 μM) was 0.3306. For the same molecule, the “fluorescence polarization, replicates” value ([1]; ADP + Pi, protein 5 μM) was 0.3415 and 0.3661 and 0.2842, the “fluorescence polarization, Mean” value ([1]; ADP + Pi, protein 7.5 μM) was 0.4153 and the “fluorescence polarization, replicates” value ([1]; ADP + Pi, protein 7.5 μM) was 0.3579 and 0.4973 and 0.3907. For the same molecule, the “fluorescence polarization, Mean” value ([1]; ADP + Pi, protein 10 μM) was 0.5765, the “fluorescence polarization, replicates” value ([1]; ADP + Pi, protein 10 μM) was 0.694 and 0.5301 and 0.5055 and the “fluorescence polarization, Mean” value ([1]; ADP + Pi, protein 25 μM) was 0.6311. For the same molecule, the “fluorescence polarization, replicates” value ([1]; ADP + Pi, protein 25 μM) was 0.6366 and 0.7022 and 0.5546, the “fluorescence polarization, Mean” value ([1]; ADP + Pi, protein 50 μM) was 0.8251 and the “fluorescence polarization, replicates” value ([1]; ADP + Pi, protein 50 μM) was 0.7268 and 0.8579 and 0.8907. For the same molecule, the “fluorescence polarization, Mean” value ([1]; AMP-PNP, protein 0.01 μM) was -0.005464, the “fluorescence polarization, Mean” value ([1]; AMP-PNP, protein 0.05 μM) was 0.0847 and the “fluorescence polarization, Mean” value ([1]; AMP-PNP, protein 0.075 μM) was 0.1721. For the same molecule, the “fluorescence polarization, Mean” value ([1]; AMP-PNP, protein 0.1 μM) was 0.3169, the “fluorescence polarization, replicates” value ([1]; AMP-PNP, protein 0.1 μM) was 0.2705 and 0.3525 and 0.3279 and the “fluorescence polarization, Mean” value ([1]; AMP-PNP, protein 0.5 μM) was 0.7951. For the same molecule, the “fluorescence polarization, replicates” value ([1]; AMP-PNP, protein 0.5 μM) was 0.7705 and 0.7869 and 0.8279, the “fluorescence polarization, Mean” value ([1]; AMP-PNP, protein 0.75 μM) was 0.8306 and the “fluorescence polarization, replicates” value ([1]; AMP-PNP, protein 0.75 μM) was 0.8361. For the same molecule, the “fluorescence polarization, Mean” value ([1]; AMP-PNP, protein 1 μM) was 0.9317, the “fluorescence polarization, Mean” value ([1]; AMP-PNP, protein 5 μM) was 0.9536 and the “fluorescence polarization, Mean” value ([1]; AMP-PNP, protein 7.5 μM) was 0.8907. The “fluorescence polarization, Mean” value ([1]; AMP-PNP, protein 10 μM) was 0.9481, the “fluorescence polarization, Mean” value ([1]; AMP-PNP, protein 25 μM) was 0.9481 and the “fluorescence polarization, Mean” value ([1]; AMP-PNP, protein 50 μM) was 1. For the same molecule, the Kd ([2]; ADP + Pi (1 mM each)) was ~110 nM and 110 nM, the Kd ([2]; AMP-PNP 1 mM) was 90 ± 14 nM and the “fluorescence polarization, replicates” value ([2]; [AG]10, ADP + Pi, RocA 50 µM, protein 0.01 μM) was 0.1995. For the same molecule, the “fluorescence polarization, Mean” value [2, 3] was 0.4699, the “fluorescence polarization, replicates” value [2, 3] was 0.5109 and 0.4536 and the “fluorescence polarization, Mean” value [2, 4] was 0.6066. The “fluorescence polarization, replicates” value [2, 4] was 0.6585, the “fluorescence polarization, Mean” value [2, 5] was 0.7049 and the “fluorescence polarization, replicates” value [2, 5] was 0.7732 and 0.6667. The “fluorescence polarization, Mean” value [2, 6] was 1.713, the “fluorescence polarization, replicates” value [2, 6] was 1.781 and 1.675 and 1.683 and the “fluorescence polarization, Mean” value [2, 7] was 1.757. The “fluorescence polarization, replicates” value [2, 7] was 1.724 (2×) and 1.8224, the “fluorescence polarization, Mean” value [2, 8] was 1.82 and the “fluorescence polarization, replicates” value [2, 8] was 1.8224 (2×) and 1.814. For the same molecule, the “fluorescence polarization, Mean” value [2, 9] was 1.888, the “fluorescence polarization, replicates” value [2, 9] was 1.913 and 1.872 and 1.88 and the “fluorescence polarization, Mean” value [2, 10] was 1.883. For the same molecule, the “fluorescence polarization, replicates” value [2, 10] was 1.855 and 1.904 and 1.888, the “fluorescence polarization, Mean” value [2, 11] was 1.893 and the “fluorescence polarization, replicates” value [2, 11] was 1.921 and 1.896 and 1.863. For the same molecule, the “fluorescence polarization, Mean” value [2, 12] was 1.861, the “fluorescence polarization, replicates” value [2, 12] was 1.863 and 1.913 and 1.806 and the “fluorescence polarization, Mean” value [2, 13] was 1.801. The “fluorescence polarization, replicates” value [2, 13] was 1.814 and 1.798 and 1.79, the “Fluorescence polarization, Replicate 1-3” value [2, 14] was 0.1557 and 0 and the “fluorescence polarization, Mean” value [2, 14] was 0.09016. For the same molecule, the “Fluorescence polarization, Replicate 1-3” value [2, 15] was 0.5246 (2×) and 0.418, the “fluorescence polarization, Mean” value [2, 15] was 0.4891 and the “Fluorescence polarization, Replicate 1-3” value [2, 16] was 0.5328 and 0.6803. For the same molecule, the “fluorescence polarization, Mean” value [2, 16] was 0.6175, the “Fluorescence polarization, Replicate 1-3” value [2, 17] was 0.8689 and 0.8033 and 0.7049 and the “fluorescence polarization, Mean” value [2, 17] was 0.7923. For the same molecule, the “Fluorescence polarization, Replicate 1-3” value [2, 18] was 1.713 (2×) and 1.631, the “fluorescence polarization, Mean” value [2, 18] was 1.686 and the “Fluorescence polarization, Replicate 1-3” value [2, 19] was 1.795 and 1.7459 and 1.77. For the same molecule, the “fluorescence polarization, Mean” value [2, 19] was 1.77, the “Fluorescence polarization, Replicate 1-3” value [2, 20] was 1.861 and 1.836 and 1.779 and the “fluorescence polarization, Mean” value [2, 20] was 1.825. The “Fluorescence polarization, Replicate 1-3” value [2, 21] was 1.787 and 1.828 and 1.811, the “fluorescence polarization, Mean” value [2, 21] was 1.809 and the “Fluorescence polarization, Replicate 1-3” value [2, 22] was 1.869 and 1.877 and 1.844. For the same molecule, the “fluorescence polarization, Mean” value [2, 22] was 1.863, the “Fluorescence polarization, Replicate 1-3” value [2, 23] was 1.836 and 1.7459 and 1.795 and the “fluorescence polarization, Mean” value [2, 23] was 1.792. For the same molecule, the “Fluorescence polarization, Replicate 1-3” value [2, 24] was 1.902 and 1.77 and 1.779, the “fluorescence polarization, Mean” value [2, 24] was 1.817 and the “Fluorescence polarization, Replicate 1-3” value [2, 25] was 1.852 and 1.787 and 1.77. The “fluorescence polarization, Mean” value [2, 25] was 1.803.
